Where “and” joins values, the source holds several entries; their conditions need not be identical. Identical values can stand only once. Entries after “also recorded” stand apart in the source; their conditions may differ. Like-named read-outs stand apart in the source and are kept apart here. Blank lines part the entries; values can stand above or below the compound they belong to.
What was measured:
Mcl-1 = biological target: T1, Mcl-1 (Homo sapiens, UniProt Q07820); assay: Fluorescence polarization assay, Bim BH3 peptide binding to GST-Mcl-1
T1 construct: made in house; host or cells: E. coli
Description: (§1) A nineteen amino acid peptide, corresponding to the BH3 domain of Bim, with the sequence FITC-GGGIAQELRRIGDEFNAY (SEQ ID NO: 1) was labeled with the tluorophore FITC according to the manufacturer's instructions (Molecular Probes, Eugene, Oreg.). This sequence was identified as being able to bind to purified Bcl-xL protein (Sattler et al. (1997) Science 275(5302): 983-86) and to have biological activity in cells (Holinger et al. J. Biol. Chem. 274; 13298-1330).
(§2) In addition, recombinant GST -Mcl-1 and GST-Bcl-xL fusion proteins were generated in E.coli and purified using glutathione-sepharose beads using conventional techniques known to those skilled in the fields of biochemistry and molecular biology, (methods for preparation are described in Strategies for Protein Purification and Characterization, Marshak, D, Kadonga, J, Burgess R, Knuth, M, Brennan, W, Sue-Hwa, L, CSH press, Cold Spring Harbor, N.Y.). Binding of the recombinant proteins to the fluorescent Bim BH3 domain was confirmed by titration of increasing concentrations of the recombinant proteins against a constant amount of labeled Bim peptide (16.65 nM). Quantitation of binding was accomplished by FP assay with mP measurements made on the Analyst-GT reader (Molecular Devices, Sunnyvale, Calif.).
Further, the ability of compound A to disrupt the interaction between the fluorescent Bim BH3 peptide and the two fusion proteins was assessed using a fluorescence polarization assay. The Bim peptide (in solution at 4 nano-Molar) and either GST-Mcl-1 (in solution at 12.5 nM) or GST-Bcl-xL (in solution at 11.8 nM) were first combined together in phosphate buttered saline buffer, and then the compound solution in DMSO was added to final concentrations ranging from 10 μM to 0.1 nM). Normally the unbound Bim polypeptide results in polarization of 5 mP units. Upon binding of the GST-Bcl-xL and GST-Mcl-1 fusion protein, polarization increased to 100 mP units.
(§3) Experiments are performed using the fluorescence polarization assay as described in Example 2. Either Bcl-xL or Mcl-1 fusion proteins were titrated and maximum mp shift indicate binding concentrations for drug titration studies, as described in Example 2. Compound II-19, was titrated from 10 μM to 0.1 nM in 2 fold serial dilution into the peptide/protein solution. The IC50 for blocking each BH3 peptide from Mcl-1 are assessed using FP, as described in Example 2.
as §3, with “Either GST-Bcl-xL” for “Either Bcl-xL”, “or GST-Mcl-1” for “or Mcl-1”, “Compound II-20,” for “Compound II-19,”, “in 2-fold” for “in 2 fold”

NCI H929 tumors = assay: NCI H929 human myeloma xenograft model in mice; assay type: in vivo, mouse; settings: bortezomib 1 mg/kg i.p. once every 3 days for 15 days; vehicle 2300 mm^3
Method: Cell Culture: Tumor cell line NCI H929 was cultured according to ATCC recommendations in […] containing 10% fetal bovine serum and pen-strep. On the day of implantation, cells were washed 1× with phosphate buffered saline (PBS) and harvested via centrifugation. Cells were pelleted (5 min at 1000 rpm, RT) then resuspended in serum-free matrigel and kept on ice until implantation.
Tumor Cell Implantation: The cell line was implanted via subcutaneous injection on the right rear flank at a volume of 200 μl containing 3×10^7 cells per mouse; the injection site was cleaned using alcohol before and after injection to prevent any infection.
Tumor Assessment: Beginning 1 week post cell implantation all animals were weighed and tagged and tumors were measured and body weights taken 3 times weekly (length×width×height) on Monday, Wednesday, and Friday for the duration of study. Once an average tumor volume of 100-200 mm^3 was reached, animals were randomized and placed into 4 treatment groups of a minimum of 10 mice per group based on tumor size. Randomization was determined by tumor volume (length×width×height)[…] for all of the mice and average volume was calculated using a average function in Excel (Microsoft Professional).
Treatment: The study involved 4 groups of 10 animals per group. Animals in all dose groups were weighed on days of tumor measurement. All doses were administered i.p. at 10 mL/kg. The Bortezormib (1 mg/kg) group was once every 3 days for 15 days. The mice receiving vehicle and compound II-19 were dosed every second day. Compound II-19 was formulated in 1% DMSO, 10 mM Tris pH 8, 30% hydroxypropyl-beta-cyclodextrin; this vehicle was used as the “vehicle” control. Bortezomib was formulated in 30% propylene glycol, 5% Tween 80, 3.3% dextrose in water, pH 4, 1% DMSO.

[1] = test system: SUDHL-6 lymphoid cell line; assay: Cell viability MTS assay, SUDHL-6; assay type: cell-based; settings: Homo sapiens, SU-DHL-6, 48 hours
Method: (§4) The lymphoid derived cell lines DHL-6 and DHL-10 were obtained from Anthony Letai of the Dana Father Cancer Research Institute, Boston, Mass. The […] derived cell line NCP-H929 was obtained irons, the NIH/NCI cell repository. AML-3 cells were obtained from Dr. Michael Andreef (MD Anderson Cancer Center, Houston, Tex.). Cells were grown in RPMI 1640 medium (GIBCO-BRL) supplemented with Pen-strep-glutamine (Gibco 10378) and 5% fetal bovine serum.
(§5) Cells were expanded in tissue culture in appropriate media and then subcultured into 96-well plates at a seeding density of 20,000-40,000 cells per well, and cells were treated with one or more compounds that were titrated info appropriate medium with FCS. Cell lines were treated with compound A at concentrations ranging from 25 μM to 25 nM. The BH3-mimetic obatoclax (Nguyen M et al. (2007), Proc. Natl. Acad. Sci. USA 104:19512-19517) was also tested against the SUDHL-6, SUDHL-10, and NCI-H929 cell lines. Cells were treated for 48 hours and scored for viability using the MTS assay (Promega). Growth inhibition was indicated as a percentage of control cell growth. Growth was determined by measuring the A570 (control cells)—A570 (treated cells)/A570 (control cells). EC50 values were calculated using Graphpad Prizm software.

SUDHL-10 cell line = assay: Cell viability MTS assay, SUDHL-10 (Bax/Bak deficient); assay type: cell-based, human; settings: Homo sapiens, SU-DHL10, 48 hours, MTS assay, Bax/Bak deficient cell line
Method: as §4, §5

Bcl-xL = biological target: T2, Bcl-xL (Homo sapiens, UniProt Q07817); assay: Fluorescence polarization assay, Bim BH3 peptide binding to GST-Bcl-xL; settings: Bim-BH3-FITC peptide, read-out: IC50, inhibition of Bim-BH3 peptide binding to Bcl-xL
T2 construct: made in house; host or cells: E. coli
Description: as §1, §2
Further, the ability of compound A to disrupt the interaction between the fluorescent Bim BH3 peptide and the two fusion proteins was assessed using a fluorescence polarization assay. […]
(§6) Experiments are performed using the fluorescence polarization assay as described in Example 2. […] The IC50 for blocking each BH3 peptide from Mcl-1 are assessed using FP, as described in Example 2.
as §6

CCRF-CEM cells = assay: CCRF-CEM leukemia xenograft study in SCID mice; assay type: in vivo, mouse; settings: 60 mg/kg I.P. 5x/week
Method: The T Lymphoblastic Leukemic Cell Line CCRF-CEM was purchased from American Type Culture Consortium (ATCC). These cells were maintained in RPMI-1640 medium supplemented with 10% of fetal bovine serum, 2 mM glutamine, and 1 mM sodium pyruvate. The cells were cultured at 37° C. in 95% air/5% CO2 and 100% humidity. Medium in the culture was changed every 48 h and cells were passaged weekly.
For cell implantation to mice, cells were harvested by centrlfugation. Cell pellets were resuspended in PBS and counted using a hemacytometer and Trypan Blue dye to measure the number of viable cells in the suspension. The harvested cells were washed once with PBS and resuspended in serum-free medium at a density of 1×10^7 cells/100 μl.
For this xenograft study, animals were divided into 4 groups of 10 mice each. Groups were treated with test compounds by IP Injection at 60 mg/kg with or vehicle control.
Mice were inoculated with the CCRF-CEM cells (10,000,000 cells) were by tail vein injection. The cell suspensions had the tendency to form clumps. Therefore, during cell inoculation, the cell suspensions had to be mixed well before drawing into the syringe. Gauge 28 needles were used for the injection.
Test articles were dissolved in a mixture of DMSO/Cremophor/water (10:18:72) and administered to the animals in 100 μl aliquots 5× per week beginning 7 days after cells were transplanted into mice. Control dosage was performed under the same schedule.
Throughout the entire study, clinical observations were conducted daily for signs of leukemia development, including lethargy, ruffled fur, lack of responsiveness to stimuli, weight loss, and becoming moribund. On Day 21 after cell inoculation, blood samples were drawn from all groups. The white blood cells of all the blood samples were measured with a Nucleo Counter (ChemMetec, Denmark). […]
After 14 days of treatment, blood samples were taken from all the mice via orbital bleeding while mice were anesthetized using isoflurane inhalation. […] The number of white blood cells was then counted by standard methods.

[2] = Pharmacokinetics of compound A in the mouse; assay type: in vivo; settings: for plasma clearance: i.p.; for half-life: plasma, ip
Method: Pharmacokinetic studies were conducted on compound A to assess plasma clearance and distribution in the mouse. Compound A was administered i.p. (as in the xenograft study) at 10 mg/kg.
Pharmacokinetic studies were conducted on compound A to assess plasma clearance and distribution in the mouse. Compounds were administered i.p. (as in the xenograft study) at 19 mg/kg.

[3] = Dose escalation study in SCID mice; assay type: in vivo; settings: 60 mg/kg
Method: Compound A was tested in SCID mice at SRI International, Menlo Park, Calif. A dose escalation study determined that that the high dose of 60 mg/kg was well-tolerated and could be safely used for the xenograft study for all 3 test articles.

Microsome stability = assay type: in vitro ADME
[4] = test system: NCI-H929 multiple myeloma cell line; assay: Cell viability MTS assay, NCI-H929; assay type: cell-based; settings: Homo sapiens, 48 hours
Method: as §4, §5

[5] = fluorescent polarisation assay of Examples 2 and 3, read-out: IC50, inhibition of MCL1
[6] = fluorescence polarization, Bim-BH3-FITC peptide, GST-Mcl-1, read-out: IC50, inhibition of Bim-BH3 peptide binding to Mcl-1

T1 sequence (Q07820 whole entry): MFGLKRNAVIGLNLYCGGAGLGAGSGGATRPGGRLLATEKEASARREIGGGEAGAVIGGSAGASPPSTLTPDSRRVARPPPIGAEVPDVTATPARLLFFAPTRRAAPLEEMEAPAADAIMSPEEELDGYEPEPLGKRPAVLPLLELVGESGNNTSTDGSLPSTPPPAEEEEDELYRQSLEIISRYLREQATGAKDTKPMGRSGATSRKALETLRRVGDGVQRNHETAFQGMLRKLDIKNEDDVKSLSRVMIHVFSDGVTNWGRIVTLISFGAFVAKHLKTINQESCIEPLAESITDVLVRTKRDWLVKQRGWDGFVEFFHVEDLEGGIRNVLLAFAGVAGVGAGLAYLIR
T2 sequence (Q07817 whole entry): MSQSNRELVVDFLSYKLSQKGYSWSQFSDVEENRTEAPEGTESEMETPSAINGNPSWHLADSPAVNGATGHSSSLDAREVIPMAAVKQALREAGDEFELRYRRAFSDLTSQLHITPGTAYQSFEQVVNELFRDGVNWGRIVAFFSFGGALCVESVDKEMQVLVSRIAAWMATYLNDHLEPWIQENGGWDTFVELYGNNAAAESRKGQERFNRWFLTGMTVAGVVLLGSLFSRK

SMILES: CC(C)C[C@H](NC(=O)[C@H](Cc1ccccc1)NC(=O)c1cnccn1)B(O)O [bortezomib, reference compound]
- average tumor volume at the end of the study (NCI H929 tumors): 1180 mm^3

SMILES: COC(=O)c1ccc(O)c2nc3c(CO)c(O)c(-c4c(O)c(CO)c5nc6c(O)ccc(C(=O)OC)c6nc5c4O)c(O)c3nc12 [II-20, dimethyl 1,1′,3,3′,6,6′-hexahydroxy-4,4′-bis(hydroxymethyl)-[2,2′-biphenazine]-9,9′-dicarboxylate]
- EC50 ([1]; read-out: EC50, cell killing in SUDHL-6): 9700 nM
- IC50 (Mcl-1; [6]): 27 nM
- preference for inhibition of Mcl-1 vs. Bcl-xL (Mcl-1; ratio of FP IC50 values): ~5 fold
- EC50 (SUDHL-10 cell line; read-out: EC50, cell killing in SUDHL-10): > 25000 nM
- IC50 (Bcl-xL): 122 nM

SMILES: COc1cc(-c2ccc(Nc3ccccc3C(=O)O)c(OC)c2)ccc1Nc1ccccc1C(=O)O [Compound A, redoxal]
- IC50 (Mcl-1; [6]): < 500 nM and 480 nM
- survival outcome vs vehicle control (CCRF-CEM cells): statistically significant; also recorded: significantly improved
- white blood cells vs vehicle control (CCRF-CEM cells; after 14 days of treatment (Day 21), P<0.02 Students' t test): significantly reduced
- mice still alive on Day 31 (CCRF-CEM cells; all vehicle mice died by Day 31): 60%
- plasma clearance ([2]; 10 mg/kg): 1.3 mL/min/kg
- plasma clearance ([2]; 19 mg/kg as printed): 1.3 mL/min/kg
- half-life ([2]; 10 mg/kg): 2.1 h
- half-life ([2]; 19 mg/kg as printed): 2.1 h
- tolerability of the high dose [3]: well-tolerated
- IC50 (Bcl-xL): > 16000 nM
- microsome stability (Microsome stability): excellent
- EC50 ([4]; read-out: EC50, cell killing in NCI-H929): 1000 nM

SMILES: COC1=CC(c2cc3ccccc3[nH]2)=N/C1=C\c1[nH]c(C)cc1C [obatoclax, reference compound]
- EC50 ([1]; read-out: EC50 in SUDHL-6 (obatoclax)): 2500 nM
- EC50 (SUDHL-10 cell line; read-out: EC50 in SUDHL-10 (obatoclax)): 800 nM
- EC50 ([4]; read-out: EC50 in NCI-H929 (obatoclax)): 1800 nM

Other lines, results leading:

- IC50 (Mcl-1; [5]): < 50000 nM
SMILES: COc1cc(-c2ccc(Nc3cccc(C(=O)O)c3)c(OC)c2)ccc1Nc1cccc(C(=O)O)c1 [Ic-1, 3,3′-((3,3′-dimethoxy-[1,1′-bipenyl]-4,4′-diyl)bis(azanediyl))dibenzoic acid]

- IC50 (Mcl-1; [5]): < 50000 nM
SMILES: COc1cc(-c2ccc(Nc3ccc(C)cc3C(=O)O)c(OC)c2)ccc1Nc1ccccc1C(=O)O [Ic-7, 2-((4′-((2-carboxyphenyl)amino)-3,3′-dimethoxy-[1,1′-biphenyl]-4-Yl)amino)-5-methylbenzoic acid]

- IC50 (Mcl-1; [5]): < 50000 nM
SMILES: COc1ccc(C(=O)O)c(Nc2ccc(-c3ccc(Nc4cc(OC)ccc4C(=O)O)c(OC)c3)cc2OC)c1 [Ic-18, 2,2′-((3,3′-dimethoxy-[1,1′-biphenyl]-4,4′-diyl)bis(azanediyl))bis(4-methoxybenzoic acid)]

- IC50 (Mcl-1; [5]): < 50000 nM
SMILES: O=C(O)c1ccccc1Nc1ccc(-c2ccc(Nc3ccccc3C(=O)O)c(O)c2)cc1O [Ic-6, 2,2′-((3,3′-dihydroxy-[1,1′-biphenyl]-4,4′-diyl)bis(azanediyl))dibenzoic acid]

- IC50 (Mcl-1; [5]): < 50000 nM
SMILES: COc1cc(-c2ccc(Nc3cnccc3C(=O)O)c(OC)c2)ccc1Nc1ccccc1C(=O)O [Ic-8]

- IC50 (Mcl-1; [5]): < 50000 nM
SMILES: COc1cc(-c2ccc(Nc3ccc(C)cc3C(=O)O)c(OC)c2)ccc1Nc1ccc(C)cc1C(=O)O [Ic-17, 6,6′-((3,3′-dimethoxy-[1,1′-biphenyl]-4,4′-diyl)bis(azanediyl))bis(3-methylbenzoic acid)]

Source: patent publication US9351971B2, “Substituted 2,2′-biphenazines for treating diseases” (Eutropics Pharmaceuticals, Inc., priority 2010, dated 2016)
